According to ChEMBL document CHEMBL6121062, “Discovery, Optimization, and Preclinical Pharmacology of EP652, a METTL3 Inhibitor with Efficacy in Liquid and Solid Tumor Models” (J Med Chem, 2025):

Tested on: Kasumi 1
Experiment: Antiproliferative activity against human Kasumi 1 cells assessed as inhibition of cell viability incubated for 72 hrs by ATPlite assay
Format: functional, cell-based
Conditions: Kasumi 1, 72 h

| Compound | IC50 |
| --- | --- |
| COc1cncc(-c2cn(Cc3ccc(N4CCC[C@@H](NCC5CCC5)C4)nn3)nn2)c1 | 1930 nM |
| CCC(c1ccc(N2CCC[C@@H](NCC3CCC3)C2)nn1)n1cc(-c2cncc(OC)c2)nn1 (stereo partly specified) | 6000 nM |
| CC(n1cc(-c2cncc(N3CCCC3)c2)nn1)n1ccc(N2CCC[C@@H](NCC3CCC3)C2)cc1=O (stereo partly specified) | 7 nM |
| CCOc1cncc(-c2cn(C(C)n3ccc(N4CCC[C@@H](NCC5CCC5)C4)cc3=O)nn2)c1 (stereo partly specified) | 302 nM |
| CC(n1cc(-c2cncc(N(C)C)n2)nn1)n1ccc(N2CCC[C@@H](NCC3CC3)C2)cc1=O (stereo partly specified) | 96 nM |
| COc1cncc(-c2cn([C@H](C)n3ccc(N4CCC[C@@H](NCC5CCC5)C4)cc3=O)nn2)c1 | 489 nM |
| COc1cncc(-c2cn(C(C)(C)c3ccc(N4CCC[C@@H](NCC5CCC5)C4)nn3)nn2)c1 | 2070 nM |
| COc1cncc(-c2cn(Cn3ccc(N4CCC[C@@H](NCC5CCC5)C4)cc3=O)nn2)c1 | 1100 nM |
| COc1cncc(-c2cn(C(C)c3ccc(N4CCC[C@@H](NCC5CCC5)C4)nn3)nn2)c1 (stereo partly specified) | 904 nM |
| CC(n1cc(-c2cncc(N(C)C)n2)nn1)n1ccc(N2CCC[C@@H](NCC3CCC3)C2)cc1=O (stereo partly specified) | 35 nM |
| COc1cncc(-c2cn(C(C)c3ccc(N4CCC[C@@H](NCC5CCC5)C4)cn3)nn2)c1 (stereo partly specified) | 2100 nM |
| CC(n1cc(-c2cncc(-n3cccn3)c2)nn1)n1ccc(N2CCC[C@@H](NCC3CCC3)C2)cc1=O (stereo partly specified) | 301 nM |
| COc1cncc(-c2cn(Cc3ccc(N4CCC[C@@H](NCC5CCC5)C4)cn3)nn2)c1 | 894 nM |
| COc1cncc(-c2cn(C(C)n3ccc(N4CCC[C@@H](NCC5CCC5)C4)cc3=O)nn2)n1 (stereo partly specified) | 656 nM |
| COc1cc(-c2cn(C(C)n3ccc(N4CCC[C@@H](NCC5CCC5)C4)cc3=O)nn2)c2cn[nH]c2c1 (stereo partly specified) | 437 nM |

Tested on: not listed separately
Experiment: Unbound AUC in Sprague-Dawley rat at 1 mg/kg/day, iv measured for 24 hrs by LC-MS/MS analysis
Format: ADME, organism-based
Conditions: in vivo

| Compound | fAUC |
| --- | --- |
| COc1cncc(-c2cn(Cc3ccc(N4CCC[C@@H](NCC5CCC5)C4)nn3)nn2)c1 | 5.7 µM·min |
| COc1cncc(-c2cn(C(C)(C)c3ccc(N4CCC[C@@H](NCC5CCC5)C4)nn3)nn2)c1 | 4.9 µM·min |
| COc1cncc(-c2cn(Cn3ccc(N4CCC[C@@H](NCC5CCC5)C4)cc3=O)nn2)c1 | 2.7 µM·min |
| COc1cncc(-c2cn(C(C)c3ccc(N4CCC[C@@H](NCC5CCC5)C4)nn3)nn2)c1 (stereo partly specified) | 5.3 µM·min |
| COc1cncc(-c2cn(C(C)c3ccc(N4CCC[C@@H](NCC5CCC5)C4)cn3)nn2)c1 (stereo partly specified) | 10.9 µM·min |
| CC(n1cc(-c2cncc(-n3cccn3)c2)nn1)n1ccc(N2CCC[C@@H](NCC3CCC3)C2)cc1=O (stereo partly specified) | 3.3 µM·min |
| COc1cncc(-c2cn(Cc3ccc(N4CCC[C@@H](NCC5CCC5)C4)cn3)nn2)c1 | 2.4 µM·min |
| COc1cncc(-c2cn(C(C)n3ccc(N4CCC[C@@H](NCC5CCC5)C4)cc3=O)nn2)n1 (stereo partly specified) | 6.1 µM·min |
| COc1cc(-c2cn(C(C)n3ccc(N4CCC[C@@H](NCC5CCC5)C4)cc3=O)nn2)c2cn[nH]c2c1 (stereo partly specified) | 0.9 µM·min |

Continued, values first:

| fAUC | Compound |
| --- | --- |
| 1 µM·min | CC(n1cc(-c2cncc(N3CCCC3)c2)nn1)n1ccc(N2CCC[C@@H](NCC3CCC3)C2)cc1=O (stereo partly specified) |
| 2.1 µM·min | CCOc1cncc(-c2cn(C(C)n3ccc(N4CCC[C@@H](NCC5CCC5)C4)cc3=O)nn2)c1 (stereo partly specified) |
| 3.8 µM·min | COc1cncc(-c2cn([C@H](C)n3ccc(N4CCC[C@@H](NCC5CCC5)C4)cc3=O)nn2)c1 |
| 5.2 µM·min | CC(n1cc(-c2cncc(N(C)C)n2)nn1)n1ccc(N2CCC[C@@H](NCC3CC3)C2)cc1=O (stereo partly specified) |
| 4.7 µM·min | CC(n1cc(-c2cncc(N(C)C)n2)nn1)n1ccc(N2CCC[C@@H](NCC3CCC3)C2)cc1=O (stereo partly specified) |

Tested on: not listed separately
Experiment: Unbound clearance in Sprague-Dawley rat at 1 mg/kg/day, iv measured for 24 hrs by LC-MS/MS analysis
Format: ADME, organism-based
Conditions: in vivo

| Compound | CL free |
| --- | --- |
| COc1cncc(-c2cn(Cc3ccc(N4CCC[C@@H](NCC5CCC5)C4)nn3)nn2)c1 | 596 mL/min/kg |
| COc1cncc(-c2cn(C(C)(C)c3ccc(N4CCC[C@@H](NCC5CCC5)C4)nn3)nn2)c1 | 421 mL/min/kg |
| COc1cncc(-c2cn(Cn3ccc(N4CCC[C@@H](NCC5CCC5)C4)cc3=O)nn2)c1 | 854 mL/min/kg |
| COc1cncc(-c2cn(C(C)c3ccc(N4CCC[C@@H](NCC5CCC5)C4)nn3)nn2)c1 (stereo partly specified) | 423 mL/min/kg |
| COc1cncc(-c2cn(C(C)c3ccc(N4CCC[C@@H](NCC5CCC5)C4)cn3)nn2)c1 (stereo partly specified) | 263 mL/min/kg |
| CC(n1cc(-c2cncc(-n3cccn3)c2)nn1)n1ccc(N2CCC[C@@H](NCC3CCC3)C2)cc1=O (stereo partly specified) | 529 mL/min/kg |
| COc1cncc(-c2cn(Cc3ccc(N4CCC[C@@H](NCC5CCC5)C4)cn3)nn2)c1 | 934 mL/min/kg |
| COc1cncc(-c2cn(C(C)n3ccc(N4CCC[C@@H](NCC5CCC5)C4)cc3=O)nn2)n1 (stereo partly specified) | 413 mL/min/kg |
| COc1cc(-c2cn(C(C)n3ccc(N4CCC[C@@H](NCC5CCC5)C4)cc3=O)nn2)c2cn[nH]c2c1 (stereo partly specified) | 2269 mL/min/kg |

The remaining lines, values ahead:

| CL free | Compound |
| --- | --- |
| 1913 mL/min/kg | CC(n1cc(-c2cncc(N3CCCC3)c2)nn1)n1ccc(N2CCC[C@@H](NCC3CCC3)C2)cc1=O (stereo partly specified) |
| 1112 mL/min/kg | CCOc1cncc(-c2cn(C(C)n3ccc(N4CCC[C@@H](NCC5CCC5)C4)cc3=O)nn2)c1 (stereo partly specified) |
| 645 mL/min/kg | COc1cncc(-c2cn([C@H](C)n3ccc(N4CCC[C@@H](NCC5CCC5)C4)cc3=O)nn2)c1 |
| 369 mL/min/kg | CC(n1cc(-c2cncc(N(C)C)n2)nn1)n1ccc(N2CCC[C@@H](NCC3CC3)C2)cc1=O (stereo partly specified) |
| 449 mL/min/kg | CC(n1cc(-c2cncc(N(C)C)n2)nn1)n1ccc(N2CCC[C@@H](NCC3CCC3)C2)cc1=O (stereo partly specified) |

Molecular target: METTL3/METTL14 (Homo sapiens, UniProt Q86U44)
Experiment: Displacement of [3H]-SAM from METTL3/METTL14 (unknown origin) using 5'biotinylated-UACACUCGAUCUGGACUAAAGGUGCUC-3' RNA as substrate preincubated for 10 mins followed by substrate/[3H]-SAM addition measured after 90 mins by SPA
Format: protein-complex assay
Conditions: not given

METTL3/METTL14, sequence (Q86U44 whole entry): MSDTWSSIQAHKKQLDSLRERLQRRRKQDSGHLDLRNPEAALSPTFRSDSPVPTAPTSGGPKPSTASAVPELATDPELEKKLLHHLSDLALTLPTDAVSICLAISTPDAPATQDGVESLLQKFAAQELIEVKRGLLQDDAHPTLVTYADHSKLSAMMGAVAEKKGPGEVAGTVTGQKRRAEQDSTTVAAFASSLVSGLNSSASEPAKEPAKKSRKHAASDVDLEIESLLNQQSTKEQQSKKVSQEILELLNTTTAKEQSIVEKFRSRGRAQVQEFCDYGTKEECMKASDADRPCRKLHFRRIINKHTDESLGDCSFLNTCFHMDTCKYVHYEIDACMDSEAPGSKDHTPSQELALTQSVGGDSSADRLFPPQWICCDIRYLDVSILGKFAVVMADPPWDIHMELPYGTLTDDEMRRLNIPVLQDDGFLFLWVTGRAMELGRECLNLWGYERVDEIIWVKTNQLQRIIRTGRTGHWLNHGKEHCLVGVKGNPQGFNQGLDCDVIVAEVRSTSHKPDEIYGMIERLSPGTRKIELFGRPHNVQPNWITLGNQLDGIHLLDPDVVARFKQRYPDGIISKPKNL
METTL3/METTL14, sequence (Q9HCE5 whole entry, further chain): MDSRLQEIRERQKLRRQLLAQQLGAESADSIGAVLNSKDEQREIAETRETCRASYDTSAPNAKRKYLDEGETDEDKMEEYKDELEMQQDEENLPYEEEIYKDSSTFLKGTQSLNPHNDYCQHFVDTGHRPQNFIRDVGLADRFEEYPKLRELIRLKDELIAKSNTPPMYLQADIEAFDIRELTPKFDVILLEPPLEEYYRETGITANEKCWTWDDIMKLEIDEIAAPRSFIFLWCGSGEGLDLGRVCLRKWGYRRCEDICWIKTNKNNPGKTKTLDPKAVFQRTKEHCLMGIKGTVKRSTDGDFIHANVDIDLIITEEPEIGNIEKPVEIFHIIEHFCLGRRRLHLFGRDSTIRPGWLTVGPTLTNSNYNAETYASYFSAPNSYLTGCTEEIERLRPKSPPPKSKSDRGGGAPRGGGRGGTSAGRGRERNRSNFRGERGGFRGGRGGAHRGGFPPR

| Compound | IC50 |
| --- | --- |
| COc1cncc(-c2cn(Cc3ccc(N4CCC[C@@H](NCC5CCC5)C4)nn3)nn2)c1 | 6 nM |
| CCC(c1ccc(N2CCC[C@@H](NCC3CCC3)C2)nn1)n1cc(-c2cncc(OC)c2)nn1 (stereo partly specified) | 31 nM |
| COc1cncc(-c2cn(C(C)(C)c3ccc(N4CCC[C@@H](NCC5CCC5)C4)nn3)nn2)c1 | 6 nM |
| COc1cncc(-c2cn(Cn3ccc(N4CCC[C@@H](NCC5CCC5)C4)cc3=O)nn2)c1 | 3 nM |
| COc1cncc(-c2cn(C(C)c3ccc(N4CCC[C@@H](NCC5CCC5)C4)nn3)nn2)c1 (stereo partly specified) | 4 nM |
| COc1cncc(-c2cn(C(C)c3ccc(N4CCC[C@@H](NCC5CCC5)C4)cn3)nn2)c1 (stereo partly specified) | 4 nM |
| CC(n1cc(-c2cncc(-n3cccn3)c2)nn1)n1ccc(N2CCC[C@@H](NCC3CCC3)C2)cc1=O (stereo partly specified) | 2 nM |
| COc1cncc(-c2cn(Cc3ccc(N4CCC[C@@H](NCC5CCC5)C4)cn3)nn2)c1 | 4 nM |
| COc1cncc(-c2cn(C(C)n3ccc(N4CCC[C@@H](NCC5CCC5)C4)cc3=O)nn2)n1 (stereo partly specified) | 3 nM |
| COc1cc(-c2cn(C(C)n3ccc(N4CCC[C@@H](NCC5CCC5)C4)cc3=O)nn2)c2cn[nH]c2c1 (stereo partly specified) | 2 nM |

The remaining molecules from weak to strong by IC50, led by results:

| IC50 | Compound |
| --- | --- |
| 2 nM | CC(n1cc(-c2cncc(N3CCCC3)c2)nn1)n1ccc(N2CCC[C@@H](NCC3CCC3)C2)cc1=O (stereo partly specified) |
| 2 nM | CCOc1cncc(-c2cn(C(C)n3ccc(N4CCC[C@@H](NCC5CCC5)C4)cc3=O)nn2)c1 (stereo partly specified) |
| 2 nM | COc1cncc(-c2cn([C@H](C)n3ccc(N4CCC[C@@H](NCC5CCC5)C4)cc3=O)nn2)c1 |
| 1 nM | CC(n1cc(-c2cncc(N(C)C)n2)nn1)n1ccc(N2CCC[C@@H](NCC3CC3)C2)cc1=O (stereo partly specified) |
| 1 nM | CC(n1cc(-c2cncc(N(C)C)n2)nn1)n1ccc(N2CCC[C@@H](NCC3CCC3)C2)cc1=O (stereo partly specified) |

Tested on: not listed separately
Experiment: Lipophilicity, logD of compound in 1-octanol/PBS at pH 7.4 incubated for 24 hrs by HPLC analysis
Format: physicochemical
Conditions: not given

| Compound | logD at 24 h |
| --- | --- |
| COc1cncc(-c2cn(Cc3ccc(N4CCC[C@@H](NCC5CCC5)C4)nn3)nn2)c1 | 1.47 |
| CCC(c1ccc(N2CCC[C@@H](NCC3CCC3)C2)nn1)n1cc(-c2cncc(OC)c2)nn1 (stereo partly specified) | 1.9 |
| COc1cncc(-c2cn(C(C)(C)c3ccc(N4CCC[C@@H](NCC5CCC5)C4)nn3)nn2)c1 | 1.69 |
| COc1cncc(-c2cn(Cn3ccc(N4CCC[C@@H](NCC5CCC5)C4)cc3=O)nn2)c1 | 1.51 |
| COc1cncc(-c2cn(C(C)c3ccc(N4CCC[C@@H](NCC5CCC5)C4)nn3)nn2)c1 (stereo partly specified) | 1.62 |
| COc1cncc(-c2cn(C(C)c3ccc(N4CCC[C@@H](NCC5CCC5)C4)cn3)nn2)c1 (stereo partly specified) | 1.65 |
| CC(n1cc(-c2cncc(-n3cccn3)c2)nn1)n1ccc(N2CCC[C@@H](NCC3CCC3)C2)cc1=O (stereo partly specified) | 1.8 |
| COc1cncc(-c2cn(Cc3ccc(N4CCC[C@@H](NCC5CCC5)C4)cn3)nn2)c1 | 1.21 |
| COc1cncc(-c2cn(C(C)n3ccc(N4CCC[C@@H](NCC5CCC5)C4)cc3=O)nn2)n1 (stereo partly specified) | 1.65 |
| COc1cc(-c2cn(C(C)n3ccc(N4CCC[C@@H](NCC5CCC5)C4)cc3=O)nn2)c2cn[nH]c2c1 (stereo partly specified) | 2.13 |

Continued, values first:

| logD at 24 h | Compound |
| --- | --- |
| 2.49 | CC(n1cc(-c2cncc(N3CCCC3)c2)nn1)n1ccc(N2CCC[C@@H](NCC3CCC3)C2)cc1=O (stereo partly specified) |
| 2.07 | CCOc1cncc(-c2cn(C(C)n3ccc(N4CCC[C@@H](NCC5CCC5)C4)cc3=O)nn2)c1 (stereo partly specified) |
| 1.5 | COc1cncc(-c2cn([C@H](C)n3ccc(N4CCC[C@@H](NCC5CCC5)C4)cc3=O)nn2)c1 |
| 1.17 | CC(n1cc(-c2cncc(N(C)C)n2)nn1)n1ccc(N2CCC[C@@H](NCC3CC3)C2)cc1=O (stereo partly specified) |
| 1.69 | CC(n1cc(-c2cncc(N(C)C)n2)nn1)n1ccc(N2CCC[C@@H](NCC3CCC3)C2)cc1=O (stereo partly specified) |

Tested on: not listed separately
Experiment: Unbound fraction in Sprague-Dawley rat plasma at 1 mg/kg/day, iv measured for 24 hrs by LC-MS/MS analysis
Format: ADME, organism-based
Conditions: in vivo

| Fu | Compound |
| --- | --- |
| 11.1% | COc1cncc(-c2cn(Cc3ccc(N4CCC[C@@H](NCC5CCC5)C4)nn3)nn2)c1 |
| 11.2% | CCC(c1ccc(N2CCC[C@@H](NCC3CCC3)C2)nn1)n1cc(-c2cncc(OC)c2)nn1 (stereo partly specified) |
| 17.4% | COc1cncc(-c2cn([C@H](C)n3ccc(N4CCC[C@@H](NCC5CCC5)C4)cc3=O)nn2)c1 |
| 15.3% | COc1cncc(-c2cn(C(C)(C)c3ccc(N4CCC[C@@H](NCC5CCC5)C4)nn3)nn2)c1 |
| 9.3% | COc1cncc(-c2cn(Cn3ccc(N4CCC[C@@H](NCC5CCC5)C4)cc3=O)nn2)c1 |
| 14% | COc1cncc(-c2cn(C(C)c3ccc(N4CCC[C@@H](NCC5CCC5)C4)nn3)nn2)c1 (stereo partly specified) |
| 14.1% | COc1cncc(-c2cn(C(C)c3ccc(N4CCC[C@@H](NCC5CCC5)C4)cn3)nn2)c1 (stereo partly specified) |
| 8.9% | COc1cncc(-c2cn(Cc3ccc(N4CCC[C@@H](NCC5CCC5)C4)cn3)nn2)c1 |
